Measurements taken from US20240391965A1, “STAPLED ANTIMICROBIAL PEPTIDES (STAMPS) AND USES THEREOF” (Lytica Therapeutics, Inc., priority 2021, published 2024).
Values after ≈ are worked out from the molar mass of the structure shown. Starred links: 1 amine or outer side, 2 acyl side, 3 side chain; linkers in the order of their positions; H or OH if unused. Positions of bridges follow the written chain, without caps; N, C: chain ends. Residues, ends and D or L forms follow the SMILES beside them. 2,2'Bipyridine(5,5'-diCH2) = c1cc(-c2ccc(C[*:2])cn2)ncc1C[*:1]; mXylylene = c1cc(C[*:1])cc(C[*:2])c1; pXylylene = c1cc(C[*:2])ccc1C[*:1]; X1 = C(=CC[*:2])C[*:1]

Experiments:
[1] = system: Klebsiella pneumoniae (K. pneumoniae); type: cell-based; details: microbroth dilution, 20-24 hours at 37° C.
Procedure, shortened: (§1)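 Broth microdilution adapted from CLSI in Mueller-Hinton broth or cation-adjusted MHB II; overnight cultures at 37 °C were regrown 3-4 h, then added to serially diluted peptide at a final 5×10^5 CFU/ml. After 20-24 h at 37 °C, MIC was taken as the lowest peptide concentration with no visible growth.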

[2] = system: Pseudomonas aeruginosa (P. aeruginosa); type: cell-based; details: microbroth dilution, 20-24 hours at 37° C.
Procedure, shortened: as §1

[3] = system: Escherichia coli (E. coli); type: cell-based; details: microbroth dilution, 20-24 hours at 37° C.
Procedure, shortened: as §1

[4] = system: Staphylococcus aureus (S. aureus); type: cell-based; details: microbroth dilution, 20-24 hours at 37° C.
Procedure, shortened: as §1

[5] = system: Acinetobacter baumannii (A. baumannii); type: cell-based; details: microbroth dilution, 20-24 hours at 37° C.
Procedure, shortened: as §1

[6] = 48 hours cytotoxicity assay (CellTiter-Glo), liver toxicity; type: cell-based, human; details: 48 hours of incubation, CellTiter-Glo; read-out: Inhibitory Concentration at 50% Cytotoxicity (IC50) Human Liver Cells (HepG2)
Procedure, shortened: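 HepG2 cells in EMEM with 10% FBS, allowed to attach 4 h, then exposed to serially diluted StAMPs or vehicle for 48 h at 37 °C. Viability read by CellTiter-Glo luminescence.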

[7] = 90 minute cytotoxicity assay (LDH release), renal toxicity; type: cell-based; details: 90 minutes of incubation, LDH release; read-out: Inhibitory Concentration at 50% Cytotoxicity (IC50) Human Renal Proximal Tubule Epithelial Cells (RPTEC)
Procedure, shortened: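 RPTEC plated overnight, given fresh medium, then exposed to serial peptide dilutions or vehicle for 90 min at 37° C. Medium LDH measured by 10 min reagent incubation and absorbance at 490 nm.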

Row | SMILES | Minimum Inhibitory Concentration (MIC) K. pneumoniae [1] [µg/mL] | Minimum Inhibitory Concentration (MIC) P. aeruginosa [2] [µg/mL] | Minimum Inhibitory Concentration (MIC) E. coli [3] [µg/mL] | Minimum Inhibitory Concentration (MIC) S. aureus [4] [µg/mL] | Minimum Inhibitory Concentration (MIC) A. baumannii [5] [µg/mL] | IC50 [6] [µg/mL] | IC50 [7] [µg/mL]
1 | CC[C@H](C)[C@H](NC(=O)CN)C(=O)N[C@@H](Cc1ccccc1)C(=O)N[C@@H](CO)C(=O)N[C@@H](CCCCN)C(=O)N[C@@H](CC(C)C)C(=O)N[C@@H](C)C(=O)NCC(=O)N[C@@H](CCCCN)C(=O)N[C@@H](CCCCN)C(=O)N[C@H](C(=O)N[C@H]1CSCc2cccc(c2)CSC[C@@H](C(=O)N[C@@H](CO)C(=O)NCC(=O)N[C@@H](CC(C)C)C(=O)N[C@@H](CCCCN)C(=O)NCC(N)=O)NC(=O)[C@H](CC(C)C)NC(=O)[C@H](CC(C)C)NC(=O)[C@H](CC(N)=O)NC1=O)[C@@H](C)CC [compound 20] (H-GIFSKLAGKKICNLLCSGLKG-NH2; linker 12-16 via mXylylene) | 16 | 16 | 8 | 64 | 8 | 40 (≈ 17.8 µM) | 25 (≈ 11.1 µM)
2 | CC[C@H](C)[C@H](NC(=O)CN)C(=O)N[C@@H](Cc1ccccc1)C(=O)N[C@@H](CO)C(=O)N[C@@H](CCCCN)C(=O)N[C@@H](CC(C)C)C(=O)N[C@@H](C)C(=O)NCC(=O)N[C@@H](CCCCN)C(=O)N[C@@H](CCCCN)C(=O)N[C@H](C(=O)N[C@H]1CSCc2ccc(cc2)CSC[C@@H](C(=O)N[C@@H](CO)C(=O)NCC(=O)N[C@@H](CC(C)C)C(=O)N[C@@H](CCCCN)C(=O)NCC(N)=O)NC(=O)[C@H](CC(C)C)NC(=O)[C@H](CC(C)C)NC(=O)[C@H](CC(N)=O)NC1=O)[C@@H](C)CC [compound 21] (H-GIFSKLAGKKICNLLCSGLKG-NH2; linker 12-16 via pXylylene) | 32 | 32 | 8 | >64 | 16 | 200 (≈ 88.8 µM) | 96 (≈ 42.6 µM)
3 | CC[C@H](C)[C@H](NC(=O)CN)C(=O)N[C@@H](Cc1ccccc1)C(=O)N[C@@H](CO)C(=O)N[C@@H](CCCCN)C(=O)N[C@@H](CC(C)C)C(=O)N[C@@H](C)C(=O)NCC(=O)N[C@@H](CCCCN)C(=O)N[C@@H](CCCCN)C(=O)N[C@H](C(=O)N[C@H]1CSCC=CCSC[C@@H](C(=O)N[C@@H](CO)C(=O)NCC(=O)N[C@@H](CC(C)C)C(=O)N[C@@H](CCCCN)C(=O)NCC(N)=O)NC(=O)[C@H](CC(C)C)NC(=O)[C@H](CC(C)C)NC(=O)[C@H](CC(N)=O)NC1=O)[C@@H](C)CC [compound 22] (H-GIFSKLAGKKICNLLCSGLKG-NH2; linker 12-16 via X1) | >64 | 64 | 32 | >64 | 64 | > 200 | > 200
4 | CC[C@H](C)[C@H](NC(=O)CN)C(=O)N[C@@H](Cc1ccccc1)C(=O)N[C@@H](CO)C(=O)N[C@@H](CCCCN)C(=O)N[C@@H](CC(C)C)C(=O)N[C@@H](C)C(=O)NCC(=O)N[C@@H](CCCCN)C(=O)N[C@@H](CCCCN)C(=O)N[C@H](C(=O)N[C@@H](CCCCN)C(=O)N[C@@H](CC(N)=O)C(=O)N[C@@H](CC(C)C)C(=O)N[C@H]1CSCc2cccc(c2)CSC[C@@H](C(=O)N[C@@H](CCCCN)C(=O)NCC(N)=O)NC(=O)CNC(=O)[C@H](CO)NC(=O)[C@H]([C@@H](C)CC)NC1=O)[C@@H](C)CC [compound 29] (H-GIFSKLAGKKIKNLCISGCKG-NH2; linker 15-19 via mXylylene) | >64 | 64 | 64 | >64 | 16 | ~200 (≈ 88.2 µM) | > 200
5 | CC[C@H](C)[C@H](NC(=O)CN)C(=O)N[C@@H](Cc1ccccc1)C(=O)N[C@@H](CO)C(=O)N[C@@H](CCCCN)C(=O)N[C@@H](CC(C)C)C(=O)N[C@@H](C)C(=O)NCC(=O)N[C@@H](CCCCN)C(=O)N[C@@H](CCCCN)C(=O)N[C@H](C(=O)N[C@@H](CCCCN)C(=O)N[C@@H](CC(N)=O)C(=O)N[C@@H](CC(C)C)C(=O)N[C@H]1CSCc2ccc(cc2)CSC[C@@H](C(=O)N[C@@H](CCCCN)C(=O)NCC(N)=O)NC(=O)CNC(=O)[C@H](CO)NC(=O)[C@H]([C@@H](C)CC)NC1=O)[C@@H](C)CC [compound 30] (H-GIFSKLAGKKIKNLCISGCKG-NH2; linker 15-19 via pXylylene) | >64 | 64 | 64 | >64 | 16 | > 200 | > 200
6 | CC[C@H](C)[C@H](NC(=O)CN)C(=O)N[C@@H](Cc1ccccc1)C(=O)N[C@@H](CO)C(=O)N[C@@H](CCCCN)C(=O)N[C@@H](CC(C)C)C(=O)N[C@@H](C)C(=O)NCC(=O)N[C@@H](CCCCN)C(=O)N[C@@H](CCCCN)C(=O)N[C@H](C(=O)N[C@@H](CCCCN)C(=O)N[C@@H](CC(N)=O)C(=O)N[C@@H](CC(C)C)C(=O)N[C@H]1CSCC=CCSC[C@@H](C(=O)N[C@@H](CCCCN)C(=O)NCC(N)=O)NC(=O)CNC(=O)[C@H](CO)NC(=O)[C@H]([C@@H](C)CC)NC1=O)[C@@H](C)CC [compound 31] (H-GIFSKLAGKKIKNLCISGCKG-NH2; linker 15-19 via X1) | >64 | >64 | >64 | >64 | >64 | > 200 | > 200
7 | CC[C@H](C)[C@H](NC(=O)CN)C(=O)N[C@@H](Cc1ccccc1)C(=O)N[C@@H](CO)C(=O)N[C@@H](CCCCN)C(=O)N[C@@H](CC(C)C)C(=O)N[C@@H](C)C(=O)NCC(=O)N[C@@H](CCCCN)C(=O)N[C@@H](CCCCN)C(=O)N[C@H](C(=O)N[C@@H](CCCCN)C(=O)N[C@@H](CC(N)=O)C(=O)N[C@@H](CC(C)C)C(=O)N[C@@H](CC(C)C)C(=O)N[C@H]1CSCc2cccc(c2)CSC[C@@H](C(=O)NCC(N)=O)NC(=O)[C@H](CC(C)C)NC(=O)CNC(=O)[C@H](CO)NC1=O)[C@@H](C)CC [compound 32] (H-GIFSKLAGKKIKNLLCSGLCG-NH2; linker 16-20 via mXylylene) | 8 | 16 | 2 | >64 | 2 | 41 (≈ 18.2 µM) | 30 (≈ 13.3 µM)
8 | CC[C@H](C)[C@H](NC(=O)CN)C(=O)N[C@@H](Cc1ccccc1)C(=O)N[C@@H](CO)C(=O)N[C@@H](CCCCN)C(=O)N[C@@H](CC(C)C)C(=O)N[C@@H](C)C(=O)NCC(=O)N[C@@H](CCCCN)C(=O)N[C@@H](CCCCN)C(=O)N[C@H](C(=O)N[C@@H](CCCCN)C(=O)N[C@@H](CC(N)=O)C(=O)N[C@@H](CC(C)C)C(=O)N[C@@H](CC(C)C)C(=O)N[C@H]1CSCc2ccc(cc2)CSC[C@@H](C(=O)NCC(N)=O)NC(=O)[C@H](CC(C)C)NC(=O)CNC(=O)[C@H](CO)NC1=O)[C@@H](C)CC [compound 33] (H-GIFSKLAGKKIKNLLCSGLCG-NH2; linker 16-20 via pXylylene) | 8 | 16 | 4 | 64 | 4 | 57 (≈ 25.3 µM) | 59 (≈ 26.2 µM)
9 | CC[C@H](C)[C@H](NC(=O)[C@H](CC(C)C)NC(=O)[C@H](CC(C)C)NC(=O)[C@H](CC(N)=O)NC(=O)[C@H](CCCCN)NC(=O)[C@@H](NC(=O)[C@H](CCCCN)NC(=O)[C@H](CCCCN)NC(=O)[C@@H]1CSCc2ccc(nc2)-c2ccc(cn2)CSC[C@H](N)C(=O)N[C@@H]([C@@H](C)CC)C(=O)N[C@@H](Cc2ccccc2)C(=O)N[C@@H](CO)C(=O)N[C@@H](CCCCN)C(=O)N[C@@H](CC(C)C)C(=O)N[C@@H](C)C(=O)N1)[C@@H](C)CC)C(=O)N[C@@H](CO)C(=O)NCC(=O)N[C@@H](CC(C)C)C(=O)N[C@@H](CCCCN)C(=O)NCC(N)=O [compound 49] (H-CIFSKLACKKIKNLLISGLKG-NH2; linker 1-8 via 2,2'Bipyridine(5,5'-diCH2); N-terminus assumed) | >64 | >64 | 32 | >64 | 32 | 22 (≈ 8.95 µM) | 60 (≈ 24.4 µM)
